Measurements: patent publication US20260062422A1 (Halda Therapeutics OpCo, Inc., priority 2022, published 2026)

Columns and labels:
VCaP cells = test: Cellular growth inhibition assay for VCaP cells, CellTiter-Glo; assay type: cell-based, human; details: 72 hours treatment, CellTiter-Glo 2.0
How it was run: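 GI50 values come from four-parameter curve fits of luminescence data normalized to a zero baseline. Compound, in medium with 0.5% DMSO, was added one day after plating and left for 72 h before CellTiter-Glo 2.0 addition.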

[1] = system: T-Rex 293 cell line SC3 cells having increased expression of androgen receptor protein due to exposure to doxycycline; test: Cellular growth inhibition, T-Rex 293 SC3 cells with doxycycline (androgen receptor induced), CellTiter-Glo; assay type: cell-based; details: T-Rex 293 SC3 cells with 10 ng/mL doxycycline (increased androgen receptor expression)
How it was run: (§1)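 Luminescence read-out (CellTiter-Glo 2.0) after 72 h compound exposure; GI50 by four-parameter nonlinear regression, baseline set at zero luminescence. SC3 cells, a doxycycline-inducible wild-type AR clone of T-Rex 293, were cultured ±10 ng/mL doxycycline in charcoal-dextran FBS medium.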

[2] = system: T-Rex 293 cell line SC3 cells lacking increased expression of androgen receptor protein; test: Cellular growth inhibition, T-Rex 293 SC3 cells without doxycycline, CellTiter-Glo; assay type: cell-based; details: T-Rex 293 SC3 cells not exposed to doxycycline, CellTiter-Glo 2.0
How it was run: as §1

T47D cells = test: Cellular growth inhibition assay for T47D cells, CellTiter-Glo; assay type: cell-based, human; details: 72 hours treatment, CellTiter-Glo 2.0 cell viability
How it was run: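 Growth inhibition as GI50, fitted with four parameters to CellTiter-Glo luminescence after 72 h of compound exposure (0.5% DMSO). Cells were T47D, grown in insulin-supplemented (0.2 units/mL) DMEM with 10% FBS and treated one day post-seeding.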

SMILES	GI50 (VCaP cells) [nM]	GI50 (T47D cells) [nM]	GI50 (T47D cells; Homo sapiens, T47D, 72 h) [nM]	GI50 (VCaP cells; Homo sapiens, VCaP, 72 h) [nM]	GI50 ([1]; 72 hours) [nM]	GI50 ([2]; 72 hours) [nM]	GI50 ([1]; 72 h) [nM]	GI50 ([2]; 72 h) [nM]
Cc1sc2c(c1C)C(c1ccc(C3CC(C4CCN(c5ncc(C(=O)N[C@H]6C(C)(C)[C@H](Oc7ccc(C#N)c(Cl)c7)C6(C)C)cn5)CC4)C3)cc1)=NC(C)c1nnc(C)n1-2 (some centres unmarked) [Compound I-468]	< 500	< 500			< 500	> 3000		
Cc1sc2c(c1C)C(c1ccc(C3CC(C4CCN(c5cnc(C(=O)N[C@H]6C(C)(C)[C@H](Oc7ccc(C#N)c(Cl)c7)C6(C)C)cn5)CC4)C3)cc1)=NC(C)c1nnc(C)n1-2 (some centres unmarked) [Compound I-469]	< 500		< 500		< 500	500 to 1500		
Cc1sc2c(c1C)C(c1ccc(C3CC(C4CCN(c5cnc(C(=O)N[C@H]6C(C)(C)[C@H](Oc7ccc(C#N)c(Cl)c7)C6(C)C)cn5)CC4)C3)cc1)=NC(C)c1nnc(C)n1-2 (some centres unmarked) [Compound I-470]	< 500	500 to 1500			< 500	> 3000		
Cc1sc2c(c1C)C(c1ccc(C3CC(C4CCN(c5cnc(C(=O)N[C@H]6C(C)(C)[C@H](Oc7ccc(C#N)c(Cl)c7)C6(C)C)cn5)CC4)C3)cc1)=NC(C)c1nnc(C)n1-2 (some centres unmarked) [Compound I-471]	> 3000	< 500			500 to 1500	> 3000		
Cc1sc2c(c1C)C(c1ccc(C3CC(C4CCN(c5cnc(C(=O)N[C@H]6C(C)(C)[C@H](Oc7ccc(C#N)c(Cl)c7)C6(C)C)cn5)CC4)C3)cc1)=NC(C)c1nnc(C)n1-2 (some centres unmarked) [Compound I-472]	> 3000	< 500			> 3000	> 3000		
Cc1sc2c(c1C)C(c1ccc(N3CC(C4CCCN(c5ncc(C(=O)N[C@H]6C(C)(C)[C@H](Oc7ccc(C#N)c(Cl)c7)C6(C)C)cn5)C4)C3)cc1)=N[C@@H](C)c1nnc(C)n1-2 (some centres unmarked) [Compound I-473]		> 3000		> 3000		> 3000	< 500	
Cc1sc2c(c1C)C(c1ccc(N3CC(C4CCCN(c5ncc(C(=O)N[C@H]6C(C)(C)[C@H](Oc7ccc(C#N)c(Cl)c7)C6(C)C)cn5)C4)C3)cc1)=N[C@@H](C)c1nnc(C)n1-2 (some centres unmarked) [Compound I-474]	> 3000	< 500			< 500	500 to 1500		
Cc1sc2c(c1C)C(c1ccc(C3CC(N4CCN(c5ncc(C(=O)N[C@H]6C(C)(C)[C@H](Oc7ccc(C#N)c(Cl)c7)C6(C)C)cn5)CC4)C3)cc1)=N[C@@H](Cc1ncco1)c1nnc(C)n1-2 (some centres unmarked) [Compound I-475]			< 500	< 500			< 500	500 to 1500
Cc1sc2c(c1C)C(c1ccc(C3CC(CC4CN(c5ncc(C(=O)N[C@H]6C(C)(C)[C@H](Oc7ccc(C#N)c(Cl)c7)C6(C)C)cn5)C4)C3)cc1)=NC(Cc1ncco1)c1nnc(C)n1-2 (some centres unmarked) [Compound I-476]			< 500	< 500			< 500	< 500
Cc1sc2c(c1C)C(c1ccc(C3CC(CC4CN(c5ncc(C(=O)N[C@H]6C(C)(C)[C@H](Oc7ccc(C#N)c(Cl)c7)C6(C)C)cn5)C4)C3)cc1)=NC(Cc1ncco1)c1nnc(C)n1-2 (some centres unmarked) [Compound I-477]	< 500	< 500			< 500	< 500		
Cc1sc2c(c1C)C(c1ccc(N3CCC(CCc4cnc(C(=O)N[C@H]5C(C)(C)[C@H](Oc6ccc(C#N)c(Cl)c6)C5(C)C)cn4)CC3)cc1)=N[C@@H](Cc1ncco1)c1nnc(C)n1-2 [Compound I-478]			500 to 1500	< 500			< 500	500 to 1500
Cc1sc2c(c1C)C(c1ccc(C(C)(C)CN3CC4(CCCN(c5ncc(C(=O)NC6C(C)(C)C(Oc7ccc(C#N)c(Cl)c7)C6(C)C)cn5)C4)C3)cc1)=N[C@@H](Cc1ncco1)c1nnc(C)n1-2 (some centres unmarked) [Compound I-479]			500 to 1500	< 500			< 500	500 to 1500
Cc1sc2c(c1C)C(c1ccc(-c3cc(C4CCN(c5ncc(C(=O)N[C@H]6C(C)(C)[C@H](Oc7ccc(C#N)c(Cl)c7)C6(C)C)cn5)CC4)cs3)cc1)=N[C@@H](Cc1ncco1)c1nnc(C)n1-2 [Compound I-480]			> 3000	< 500			< 500	> 3000
Cc1sc2c(c1C)C(c1ccc(C(F)(F)N3CC4(CCN(c5ncc(C(=O)N[C@H]6C(C)(C)[C@H](Oc7ccc(C#N)c(Cl)c7)C6(C)C)cn5)CC4)C3)cc1)=N[C@@H](Cc1ncco1)c1nnc(C)n1-2 [Compound I-504]			< 500	< 500			< 500	> 3000

Further lines, with some results ahead:

GI50 (VCaP cells) [nM]	GI50 (T47D cells) [nM]	GI50 (T47D cells; Homo sapiens, T47D, 72 h) [nM]	GI50 (VCaP cells; Homo sapiens, VCaP, 72 h) [nM]	SMILES	GI50 ([1]; 72 hours) [nM]	GI50 ([2]; 72 hours) [nM]	GI50 ([1]; 72 h) [nM]	GI50 ([2]; 72 h) [nM]
		500 to 1500	> 3000	Cc1sc2c(c1C)C(c1ccc(N3CC(CC4CN(c5ncc(C(=O)N[C@H]6C(C)(C)[C@H](Oc7ccc(C#N)c(Cl)c7)C6(C)C)cn5)C4)C3)cc1)=N[C@@H](C)c1nnc(C)n1-2 [Compound I-514]			< 500	> 3000
		< 500	< 500	Cc1sc2c(c1C)C(c1ccc(C3(C4CC5(CCN(c6ncc(C(=O)N[C@H]7C(C)(C)[C@H](Oc8ccc(C#N)c(Cl)c8)C7(C)C)cn6)CC5)C4)CC3)cc1)=N[C@@H](Cc1ncco1)c1nnc(C)n1-2 [Compound I-525]			< 500	> 3000
		< 500	> 3000	Cc1sc2c(c1C)C(c1ccc(CC3CC4(CCN(c5cnc(C(=O)N[C@H]6C(C)(C)[C@H](Oc7ccc(C#N)c(Cl)c7)C6(C)C)cn5)CC4)C3)cc1)=N[C@@H](Cc1ncco1)c1nnc(C)n1-2 [Compound I-547]			< 500	< 500
		< 500	500 to 1500	Cc1sc2c(c1C)C(c1ccc(CC3CC4(CCN(c5ccc(C(=O)N[C@H]6C(C)(C)[C@H](Oc7ccc(C#N)c(Cl)c7)C6(C)C)cn5)CC4)C3)cc1)=N[C@@H](Cc1ncco1)c1nnc(C)n1-2 [Compound I-548]			< 500	< 500
		< 500	< 500	Cc1sc2c(c1C)C(c1ccc(OC3CC4(C3)CC3(CCN(c5ccc(C(=O)N[C@H]6C(C)(C)[C@H](Oc7ccc(C#N)c(Cl)c7)C6(C)C)cn5)CC3)C4)cc1)=N[C@@H](C)c1nnc(C)n1-2 [Compound I-550]			< 500	> 3000
		> 3000	< 500	Cc1sc2c(c1C)C(c1ccc(CC3CCN(c4ncc(C(=O)N[C@H]5C(C)(C)[C@H](Oc6ccc(C#N)c(Cl)c6)C5(C)C)cn4)CC3)cc1)=NC1(CC1)c1nnc(C)n1-2 [Compound I-555]			< 500	500 to 1500
		> 3000	< 500	Cc1sc2c(c1C)C(c1ccc(CC3CCN(c4ncc(C(=O)N[C@H]5C(C)(C)[C@H](Oc6ccc(C#N)c(Cl)c6)C5(C)C)cn4)CC3)cc1)=N[C@@H](C)c1nnc(C)n1-2 [Compound I-557]			< 500	< 500
		1500 to 3000	< 500	COC[C@@H]1N=C(c2ccc(OC3CC4(CCN(c5ncc(C(=O)N[C@H]6C(C)(C)[C@H](Oc7ccc(C#N)c(Cl)c7)C6(C)C)cn5)CC4)C3)cc2)c2c(sc(C)c2C)-n2c(C)nnc21 [Compound I-565]			< 500	> 3000
		> 3000	< 500	COCC[C@@H]1N=C(c2ccc(OC3CC4(CCN(c5ncc(C(=O)N[C@H]6C(C)(C)[C@H](Oc7ccc(C#N)c(Cl)c7)C6(C)C)cn5)CC4)C3)cc2)c2c(sc(C)c2C)-n2c(C)nnc21 [Compound I-566]			< 500	> 3000
